Laboratory results taken from the CheMixHub ionic liquid set.

Assay: xn = mol fraction of the nth substance listed

CCCC[n+]1ccn(C)c1.COP(=O)([O-])OC + CCCC(=O)[O-].CC[NH+](CC)CCO
101 kPa, x2 = 0
Details | viscosity [mPa·s]
298.15 K | 609
318.15 K | 168.9
328.15 K | 100.9
348.15 K | 43.18
373.15 K | 19.25

CCCC[n+]1ccn(C)c1.COP(=O)([O-])OC + CCCCC(=O)[O-].CC[NH+](CC)CCO
101 kPa, x2 = 0
Details | viscosity [mPa·s]
303.15 K | 426
323.15 K | 129.4
328.15 K | 100.9
348.15 K | 43.18
358.15 K | 30.38
368.15 K | 22.22
373.15 K | 19.25

CCCC[n+]1ccn(C)c1.COP(=O)([O-])OC + CCCCCC(=O)O.CCCCCC(=O)[O-].CC[NH+](CC)CCO
101 kPa, x2 = 0
Details | viscosity [mPa·s]
298.15 K | 609
303.15 K | 426
318.15 K | 168.9
333.15 K | 79.9
358.15 K | 30.38
363.15 K | 25.86

CCCCCC[n+]1ccn(C)c1.N#Cc1ccc[n-]1 + CCCCCCCCCCCCCC[P+](CCCCCC)(CCCCCC)CCCCCC.O=S(=O)([N-]S(=O)(=O)C(F)(F)F)C(F)(F)F
283.15 K, 100 kPa
Details | viscosity [mPa·s]
x2 = 0 | 900
x2 = 0.1 | 890
x2 = 0.2 | 880
x2 = 0.501 | 850
x2 = 0.601 | 880
x2 = 0.7 | 850
x2 = 0.8 | 870
x2 = 0.9 | 810

[Cl-].[Cl-].[Co+2] + CCCCCCCCCCCCCC[P+](CCCCCC)(CCCCCC)CCCCCC.[Cl-] + CCCCCCCC(=O)O
Details | viscosity [mPa·s]
296.1 K, 101.3 kPa, x2 = 0.4, x1 = 0.2 | 8500

O=C([O-])CC(O)(CC(=O)[O-])C(=O)[O-].[Na+].[Na+].[Na+] + CCCCCCCCCCCC[N+](C)(C)C.[Br-] + O
298.15 K, 101 kPa
Details | electrical conductivity [S/m]
x1 = 0.0001801, x2 = 6.99e-05 | 0.2684
x1 = 0.0001801, x2 = 7.929e-05 | 0.2719
x1 = 0.0001801, x2 = 8.85e-05 | 0.2754
x1 = 0.0001801, x2 = 9.753e-05 | 0.2789
x1 = 0.0001801, x2 = 0.0001069 | 0.2823
x1 = 0.0001801, x2 = 0.0001161 | 0.2857
x1 = 0.0001801, x2 = 0.0001253 | 0.2892
x1 = 0.0001801, x2 = 0.0001344 | 0.2925
x1 = 0.0001801, x2 = 0.0001434 | 0.2957
x1 = 0.0001801, x2 = 0.0001524 | 0.2987
x1 = 0.0001801, x2 = 0.0001611 | 0.3009
x1 = 0.0001801, x2 = 0.0001696 | 0.3029
x1 = 0.0001801, x2 = 0.0001784 | 0.3047
x1 = 0.0001801, x2 = 0.0001916 | 0.3068
x1 = 0.0001801, x2 = 0.0002048 | 0.3082
x1 = 0.0001801, x2 = 0.0002178 | 0.3097
x1 = 0.0001801, x2 = 0.0002306 | 0.311
x1 = 0.0001801, x2 = 0.0002434 | 0.3121
x1 = 0.0001801, x2 = 0.0002561 | 0.3132
x1 = 0.0001801, x2 = 0.0002685 | 0.3143
x1 = 0.0001801, x2 = 0.000281 | 0.3154
x1 = 0.0001801, x2 = 0.0002933 | 0.3165
x1 = 0.0001801, x2 = 0.0003055 | 0.3176
x1 = 0.0001802, x2 = 0 | 0.2438
x1 = 0.0001802, x2 = 3.07e-06 | 0.2445
x1 = 0.0001802, x2 = 6.32e-06 | 0.2456
x1 = 0.0001802, x2 = 1.391e-05 | 0.2483
x1 = 0.0001802, x2 = 2.348e-05 | 0.2516
x1 = 0.0001802, x2 = 3.251e-05 | 0.2548
x1 = 0.0001802, x2 = 4.154e-05 | 0.258
x1 = 0.0001802, x2 = 5.076e-05 | 0.2614
x1 = 0.0001802, x2 = 6.015e-05 | 0.2648
x1 = 0.001798, x2 = 0.000148 | 1.558
x1 = 0.001798, x2 = 0.0001666 | 1.562
x1 = 0.001798, x2 = 0.0001847 | 1.565
x1 = 0.001798, x2 = 0.0002029 | 1.569
x1 = 0.001798, x2 = 0.0002206 | 1.573
x1 = 0.001798, x2 = 0.0002383 | 1.576
x1 = 0.001798, x2 = 0.0002559 | 1.579
x1 = 0.001798, x2 = 0.000273 | 1.582
x1 = 0.001798, x2 = 0.0002898 | 1.585
x1 = 0.001798, x2 = 0.0003068 | 1.588
x1 = 0.001798, x2 = 0.0003234 | 1.591
x1 = 0.001798, x2 = 0.0003396 | 1.594
x1 = 0.001798, x2 = 0.0003558 | 1.597
x1 = 0.001798, x2 = 0.0003717 | 1.599
x1 = 0.001798, x2 = 0.0003855 | 1.602
x1 = 0.001798, x2 = 0.0004015 | 1.604
x1 = 0.001798, x2 = 0.000417 | 1.607
x1 = 0.001798, x2 = 0.000448 | 1.611
x1 = 0.001799, x2 = 0 | 1.541
x1 = 0.001799, x2 = 6.09e-06 | 1.538
x1 = 0.001799, x2 = 1.458e-05 | 1.538
x1 = 0.001799, x2 = 2.214e-05 | 1.539
x1 = 0.001799, x2 = 2.989e-05 | 1.54
x1 = 0.001799, x2 = 4.188e-05 | 1.542
x1 = 0.001799, x2 = 5.738e-05 | 1.543
x1 = 0.001799, x2 = 7.288e-05 | 1.544
x1 = 0.001799, x2 = 9.225e-05 | 1.547
x1 = 0.001799, x2 = 0.0001101 | 1.55
x1 = 0.001799, x2 = 0.0001291 | 1.554

CCCCO + CCCCCCCCCCCC[N+](C)(C)Cc1ccccc1.O=S(=O)([N-]S(=O)(=O)C(F)(F)F)C(F)(F)F
101 kPa, x2 = 0
Details | viscosity [mPa·s]
298.15 K | 2.52
308.15 K | 1.98
313.15 K | 1.75
343.15 K | 0.92
348.15 K | 0.845

[Cl-].[Cl-].[Co+2] + CCCCCCCC[N+](C)(CCCCCCCC)CCCCCCCC.[Cl-] + CCCCCCCC(=O)O
Details | viscosity [mPa·s]
296.1 K, 101.3 kPa, x2 = 0.4, x1 = 0.2 | 428

[Cl-].[Cl-].[Co+2] + CCCCCCCC[N+](CCCCCCCC)(CCCCCCCC)CCCCCCCC.[Br-] + CCCCC/C=C\C/C=C\CCCCCCCC(=O)O
296.1 K, 101.3 kPa
Details | viscosity [mPa·s]
x2 = 0.4, x1 = 0.2 | 9700
x2 = 0.4286, x1 = 0.1429 | 2780

[Cl-].[Cl-].[Co+2] + CCCCCCCC[N+](CCCCCCCC)(CCCCCCCC)CCCCCCCC.[Br-] + CCCCCCCC(=O)O
296.1 K, 101.3 kPa
Details | viscosity [mPa·s]
x2 = 0.2857, x1 = 0.1429 | 2615
x2 = 0.4, x1 = 0.2 | 5700
x2 = 0.4286, x1 = 0.1429 | 7600

[Cl-].[Cl-].[Co+2] + CCCCCCCC[N+](CCCCCCCC)(CCCCCCCC)CCCCCCCC.[Br-] + CCCCCCCCCC(=O)O
Details | viscosity [mPa·s]
296.1 K, 101.3 kPa, x2 = 0.4, x1 = 0.2 | 55000

[Cl-].[Cl-].[Co+2] + CCCCCCCC[N+](CCCCCCCC)(CCCCCCCC)CCCCCCCC.[Br-] + Cc1ccc(C(C)C)c(O)c1
296.1 K, 101.3 kPa
Details | viscosity [mPa·s]
x2 = 0.4, x1 = 0.2 | 79000
x2 = 0.4286, x1 = 0.1429 | 48000

[Cl-].[Li+] + CCCCCCCCn1cc[n+](C)c1.N#C[S-] + CN1CCCC1=O
298.15 K, 101 kPa
Details | viscosity [mPa·s]
x2 = 0, x1 = 0.03756 | 2.607
x2 = 0, x1 = 0.07175 | 3.558
x2 = 0, x1 = 0.1044 | 4.958

CCCCCCCCn1cc[n+](C)c1.F[B-](F)(F)F + CCCCCCCCn1cc[n+](C)c1.[Cl-]
101 kPa
Details | electrical conductivity [S/m] | viscosity [mPa·s]
303 K, x2 = 0 | 0.0817 | –
303 K, x2 = 0.8 | 0.00551 | –
303.15 K, x2 = 0 | – | 258
303.15 K, x2 = 0.4 | – | 1093
308 K, x2 = 0.8 | 0.00853 | –
313 K, x2 = 0.6 | 0.0233 | –
318 K, x2 = 0 | 0.172 | –
318 K, x2 = 0.2 | 0.106 | –
318 K, x2 = 0.6 | 0.0327 | –
318.15 K, x2 = 0.8 | – | 1486
323 K, x2 = 0.6 | 0.0452 | –
328 K, x2 = 0.2 | 0.17 | –
333 K, x2 = 0 | 0.322 | –
333.15 K, x2 = 0 | – | 61

CCCCCCCCn1cc[n+](C)c1.O=[N+]([O-])[O-] + CCCCCCCCn1cc[n+](C)c1.[Cl-]
Details | viscosity [mPa·s]
293 K, 101 kPa, x2 = 0.3615 | 8500

CC(C)O + CCCCCC[N+](CC)(CC)CC.O=S(=O)([N-]S(=O)(=O)C(F)(F)F)C(F)(F)F
100 kPa, x1 = 1
Details | viscosity [mPa·s]
298.15 K | 2.05
303.15 K | 1.73
308.15 K | 1.49

[Cl-].[Li+] + CCCCCC[n+]1ccn(C)c1.N#C[S-] + CN1CCCC1=O
298.15 K, 101 kPa
Details | viscosity [mPa·s]
x2 = 0, x1 = 0.04156 | 2.626
x2 = 0, x1 = 0.07132 | 3.558
x2 = 0, x1 = 0.1038 | 4.959

CC(C)O + CCCCCC[n+]1ccn(C)c1.O=S(=O)([N-]S(=O)(=O)C(F)(F)F)C(F)(F)F
100 kPa, x1 = 1
Details | viscosity [mPa·s]
293.15 K | 2.42
298.15 K | 2.05
303.15 K | 1.73
308.15 K | 1.49
313.15 K | 1.34

CCCCCCCCCCCCCC[P+](CCCCCC)(CCCCCC)CCCCCC.O=S(=O)([N-]S(=O)(=O)C(F)(F)F)C(F)(F)F + CCCCCC[n+]1ccn(C)c1.O=S(=O)([N-]S(=O)(=O)C(F)(F)F)C(F)(F)F
100 kPa
Details | viscosity [mPa·s]
278.15 K, x2 = 0.404 | 870
283.15 K, x2 = 0.097 | 770

CC(C)O + CCCCCC[n+]1ccn(C)c1.O=S(=O)([O-])C(F)(F)F
100 kPa, x1 = 1
Details | viscosity [mPa·s]
298.15 K | 2.05
308.15 K | 1.49

CC(C)O + CCCCCC[n+]1ccn(C)c1.O=[N+]([O-])[O-]
100 kPa, x2 = 0
Details | viscosity [mPa·s]
293.15 K | 2.42
298.15 K | 2.08
303.15 K | 1.8
308.15 K | 1.56
313.15 K | 1.36
318.15 K | 1.19
323.15 K | 1.05

CCCCC[N+](CC)(CC)CC.O=S(=O)([N-]S(=O)(=O)C(F)(F)F)C(F)(F)F + CCCCC[P+](CC)(CC)CC.O=S(=O)([N-]S(=O)(=O)C(F)(F)F)C(F)(F)F
101.3 kPa
Details | viscosity [mPa·s]
298.15 K, x1 = 0.6 | 123
303.15 K, x1 = 1 | 126
318.15 K, x1 = 0.2 | 39.5
338.15 K, x1 = 0.6 | 22.8
343.15 K, x1 = 1 | 23.3
348.15 K, x1 = 0.8 | 18.3
353.15 K, x1 = 0.2 | 13.1
353.15 K, x1 = 1 | 17.3
